Key:
in vitro = details: human, Caco-2, pH 7.4
Description: Cellular Permeability Measurements
Caco-2 cells were obtained from Leibniz Institute DSMZ-German Collection of Microorganisms and Cell Cultures (Braunschweig, Germany) and cultured in DMEM (Dulbecco's modified Eagle medium) containing (in final concentrations) 10% FCS (fetal calf serum), 1% NEAA (non-essential amino acids), 2 mM Glutamin, 100 U/mL Penicillin and 100 μg/mL Streptomycin. Caco-2 cells were seeded either onto 24-well Transwell inserts (Corning, #3379) for bidirectional permeability assays at a density of 160,000 cells/cm^2 and cultured for 3 weeks, with media change on every second day.
For bidirectional permeability assays 10 mM DMSO stock solutions were diluted in transport buffer (final concentrations: 128.13 mM NaCl, 5.36 mM KCl, 1 mM MgSO4, 1.8 mM CaCl2, 4.17 mM NaHCO3, 1.19 mM Na2HPO4, 0.41 mM NaH2PO4, 15 mM 2-[4-(2-hydroxyethyl)piperazin-1-yl]ethanesulfonic acid (HEPES), 20 mM glucose, pH 7.4) containing 0.25% bovine serum albumin to a final concentration of 10 μM of the test compounds and added to the apical or basal compartment. Cells were incubated with the compounds for up to 2 h. Samples from the opposite compartment were taken at different timepoints.
Compound concentrations in the compartments were quantified using a RapidFire-based high-throughput HPLC/MS/MS system (high performance liquid chromatography/mass spectrometry; Bio-Cius) that was customized to a fully automated and flexible platform, termed RIAS. In this modified setup, the sample was aspirated by a vacuum pump into a 10 μL sample loop for 250 ms and flushed onto a C4 cartridge (3.8 μL bed volume; Bio-Cius) with the aqueous mobile phase (99.9% water, 0.09% formic acid, and 0.01% TFA; flow rate 1.5 mL/min). Prior to bioanalysis samples were spiked with internal standard solution and diluted with acetonitrile (ACN) for protein precipitation. Measurement was operated in multiplereaction monitoring (MRM) mode. Quantification was performed using external calibration. A solid-phase extraction step retained the analyte for 3000 ms while interfering matrix (e.g., buffer components) was removed. With a simple step gradient, the analyte was back-eluted from the cartridge for 3,000 ms with the organic mobile phase (99.9% acetonitrile/methanol [1:1, v:v], 0.09% formic acid, and 0.01% TFA) and flushed into the mass spectrometer at a flow rate of 1.25 mL/min. Afterwards, the cartridge was re-equilibrated with the aqueous mobile phase for 500 ms (flow rate 1.5 mL/min).
Apparent permeability coefficients in the apical to basal direction (Papp,AB) and in the basal to apical direction (Papp,BA) and efflux ratios were calculated as follows: Papp,AB=QAB/(C0·s·t) Papp,BA=QBA/(C0·s·t) Efflux ratio=Papp,BA/Papp,AB
where Q is the amount of compound recovered in the receiver compartment after the incubation time t, C0 the initial compound concentration given to the donor compartment, and s the surface area of the Transwell inserts. […] In addition, transepithelial electrical resistance (TEER) values are measured for each plate before the permeability assay, and total recovery in donor and receiver compartments was determined for each compound.

STING AQ-variant = target: T1, STING AQ-variant (Homo sapiens, UniProt Q86WV6, G230A/H232R/R293Q); assay: IRF-inducible SEAP reporter assay in THP1-Blue ISG cells, STING AQ-variant; assay type: cell-based; details: 24 hours incubation
T1 construct: expressed in transfected cells; host or cells: THP1-Blue ISG hSTING KO clone, retroviral MSCV-ires-GFP-Blasti
Text: (§1) In Vitro Cytokine Induction Measured Via Activation of an Interferon Regulatory Factor Inducible Reporter Gene
(§2) Activation of the STING protein expressed in cell lines results in an increase of interferon production. By the stable integration of an interferon regulatory factor (IRF)-inducible SEAP gene (secreted embryonic alkaline phosphatase) reporter construct the functional interferon signaling pathway can be monitored. Using Invivogen's THP1-Blue™ ISG colorimetric enzyme assay and a suitable optical density (OD) reader the activity of SEAP can be detected and quantified. This technique could be used to characterize pharmacological modification of the STING pathway.
(§3) Several single nucleotide polymorphisms have been identified in the human STING gene. To determine the activity of the above described compounds, THP1-Blue™ ISG reporter cell lines expressing the different human STING variants have been generated. To do so, the endogenous human STING was first deleted using the CRISPR/CAS9 system: THP1-Blue ISG cells were electroporated with ALL-IN-ONE CRISPR plasmids targeting the STING gene (purchased from Sigma encoding the gRNA and GFP as a reporter gene for successful transduction). GFP positive cells then were sorted 24 h post transfection and expanded. Cells were then dispersed in semisolid methocel medium to allow single cell clone isolations. Clones were then screened for cGAMP responsiveness using the Quanti-Blue™ reporter assay. Non-responsive clones were subsequently analysed for STING loss by western blotting and sequencing of the STING locus.
(§4) For the overexpression of the human STING variants, a confirmed THP1-Blue™ ISG hSTING KO clone was transduced with individual retroviral plasmids (MSCV-ires-GFP-Blasti) encoding the allelic variants of hSTING (WT (H232R), HAQ, R232H, AQ and R293Q). Transduced cells were sorted for different levels of GFP fluorescence and STING allele expression was analysed by western blot.
(§5) Measurements of SEAP activity were performed in THP1-Blue™ ISG cells stably expressing the different human STING isoforms and the IRF-inducible SEAP reporter construct. Cells were cultivated in RPMI1640 medium with 10% fetal calf serum, 50 μg/ml Penicillin-Streptomycin, 100 μg/ml Zeocin, and 100 μg/ml Normocin in a 37°, 95% humidity and 5% CO2 incubator.
(§6) In preparation for the assay, the cells were distributed into the assay plates with a density of 10000 cells/15 μL per well. Compounds were prepared by an 8 point serial dilution in 50% aqueous DMSO and a final dilution step into medium to ensure a final DMSO concentration of 0.5% in the assay. 5 μL of diluted compounds were added to the plates, followed by a 24 hours incubation at 37° C.
(§7) At the day of the assay, 75 μl per well of Quanti-Blue™ reagent was added to all wells of the plate and the plate was incubated another 30 minutes at 37° C. The OD at 620 nm was measured on the EnVision reader (PerkinElmer).
(§8) EC50 values and Hill slopes were derived from 8-point four parametric non-linear curve fittings with the Megalab software (Boehringer Ingelheim) using the OD at 620 nm.
(§9) Data of EC50 values can be found in tables 2a-2e.
Data of EC50 values on STING AQ-variant can be found in table 2e: […]

STING R293Q-variant = target: T2, STING R293Q-variant (Homo sapiens, UniProt Q86WV6, H232R/R293Q); assay: IRF-inducible SEAP reporter assay in THP1-Blue ISG cells, STING R293Q-variant; assay type: cell-based; details: 24 hours incubation
T2 construct: expressed in transfected cells; host or cells: THP1-Blue ISG hSTING KO clone, retroviral MSCV-ires-GFP-Blasti
Text: as §1, §2, §3, §4, §5, §6, §7, §8, §9
Data of EC50 values on STING R293Q-variant can be found in table 2d: […]

STING R232H-variant = target: T3, STING R232H-variant (Homo sapiens, UniProt Q86WV6); assay: IRF-inducible SEAP reporter assay in THP1-Blue ISG cells, STING R232H-variant; assay type: cell-based; details: 24 hours incubation
T3 construct: expressed in transfected cells; host or cells: THP1-Blue ISG hSTING KO clone, retroviral MSCV-ires-GFP-Blasti
Text: as §1, §2, §3, §4, §5, §6, §7, §8, §9
Data of EC50 values on STING R232H-variant can be found in table 2c: […]

[1] = test system: Human STING (hSTING, residues 155-341); assay: Interaction with hSTING as determined by Differential Scanning Fluorimetry (DSF); assay type: binding; details: 100 μM test compounds, 5 μM target protein
Description: Interaction with hSTING as Determined by Differential Scanning Fluorimetry (DSF)
In DSF, the temperature at which a protein unfolds, also called the melting temperature Tm, is measured by changes in fluorescence of a dye that binds to the hydrophobic parts of the protein. Tm shifts upon binding of a small molecule are correlated with the binding affinity of this small molecule. As target protein, Human STING (hSTING, residues 155-341, MW: 21578.4 Da; protein stock solution: c=1302 μM stock solution in 20 mM Tris, 100 mM NaCl, 2 mM TCEP pH 8.8) was used, as assay buffer 20 mM Tris, 150 mM NaCI pH7.5 was added where and as necessary.
Final concentrations of components in assay: 100 μM test compounds, 5 μM target protein, “5×” SYPR Orange (from stock solution SYPRO orange solution in DMSO (invitrogen cat.-no. S6650-500 ul), concentration “5000×”)
1) Dilutions of compound stock solutions (10 mM in DMSO) were prepared in assay buffer (20 mM Tris, 150 mM NaCl; pH7.5)
2) 5 μl fluorescent dye stock solution (5000×SYPRO Orange in DMSO) was mixed with 19 μl target protein (1302 μM) and 976 μl assay buffer.
3) 2 μl of this protein-dye-mixture (25×SYPRO Orange and 25 μM Protein) was added to 8 μl diluted compound solution as prepared in step 1. Final volume was 10 μl.
4) With every 20 compounds, two negative controls were measured.
5) The plates were prepared for duplicate measurement and centrifuged for 2 min at 1000 g.
6) For the measurement, a CFX384 Real-Time System (Bio-Rad) was used. The run consisted of 140 cycles with 0.5° C./cycle (temperature ramp 15 s/cycle, 25° C. to 95° C.).
Data analysis: The melting curves were processed in Bio-Rad CFX Manager. Peak type was set to “negative”. Two replicates of TM (melting temperature) measurements were averaged and the standard deviation was calculated.

STING HAQ-variant = target: T4, STING HAQ-variant (Homo sapiens, UniProt Q86WV6, G230A/H232R/R293Q/R71H); assay: IRF-inducible SEAP reporter assay in THP1-Blue ISG cells, STING HAQ-variant; assay type: cell-based; details: STING HAQ-variant (parental or re-introduced), 24 hours incubation
T4 construct: parental THP1-Blue™ ISG cell lines (which express endogenously HAQ); host or cells: THP1-Blue ISG (parental, endogenous HAQ) or STING-KO clone re-transduced with HAQ (MSCV-ires-GFP-Blasti)
Text: as §1, §2, §3, §4, §5, §6, §7, §8, §9
Data of EC50 values on STING HAQ-variant can be found in table 2a. Shown data below were either derived from the parental THP1-Blue™ ISG cell lines (which express endogenously HAQ) or from genetically engineered THP1-Blue™ ISG cell lines in which first STING has been knocked-out and the HAQ specific STING isoform has been re-introduced as described above.

STING H232R-variant = target: T5, STING H232R-variant (Homo sapiens, UniProt Q86WV6, H232R); assay: IRF-inducible SEAP reporter assay in THP1-Blue ISG cells, STING H232R-variant; assay type: cell-based; details: STING H232R-variant (WT), 24 hours incubation
T5 construct: expressed in transfected cells; host or cells: THP1-Blue ISG hSTING KO clone, retroviral MSCV-ires-GFP-Blasti
Text: as §1, §2, §3, §4, §5, §6, §7, §8, §9
Data of EC50 values on STING H232R-variant can be found in table 2b: […]

T3 sequence (Q86WV6 whole entry, stated change not applied): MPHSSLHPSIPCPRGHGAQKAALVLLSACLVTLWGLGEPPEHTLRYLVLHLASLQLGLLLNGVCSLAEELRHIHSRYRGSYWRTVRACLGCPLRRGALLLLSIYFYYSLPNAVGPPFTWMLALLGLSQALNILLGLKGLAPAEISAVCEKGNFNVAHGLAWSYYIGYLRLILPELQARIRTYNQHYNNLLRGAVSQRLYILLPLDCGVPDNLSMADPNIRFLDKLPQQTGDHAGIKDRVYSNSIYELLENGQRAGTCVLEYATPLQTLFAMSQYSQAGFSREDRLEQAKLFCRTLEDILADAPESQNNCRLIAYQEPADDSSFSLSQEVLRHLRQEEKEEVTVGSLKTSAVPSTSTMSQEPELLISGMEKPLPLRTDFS
T1 sequence (Q86WV6 whole entry G230A/H232R/R293Q): as the sequence (Q86WV6 whole entry, stated change not applied) above, with G230A, H232R, R293Q counted along it
T4 sequence (Q86WV6 whole entry R71H/G230A/H232R/R293Q): as the sequence (Q86WV6 whole entry, stated change not applied) above, with R71H, G230A, H232R, R293Q counted along it
T5 sequence (Q86WV6 whole entry H232R): as the sequence (Q86WV6 whole entry, stated change not applied) above, with H232R counted along it
T2 sequence (Q86WV6 whole entry H232R/R293Q): as the sequence (Q86WV6 whole entry, stated change not applied) above, with H232R, R293Q counted along it

| SMILES | Papp A→B at 10 μM (in vitro) [×10⁻⁶ cm/s] | efflux ratio at 10 μM (in vitro) | EC50 (STING AQ-variant) [nM] | EC50 (STING R293Q-variant) [nM] | EC50 (STING R232H-variant) [nM] | thermal shift (ΔTm) [1] [K] | EC50 (STING HAQ-variant) [nM] | EC50 (STING H232R-variant) [nM] |
| --- | --- | --- | --- | --- | --- | --- | --- | --- |
| Cc1cccc2c(-c3cccc4nn(C)cc34)nn(-c3ccc(N4CCC(S(C)(=O)=O)CC4)nc3)c12 [compound 18, 1-[6-(4-methanesulfonylpi-peridin-1-yl)pyridin-3-yl]-2′,7-dimethyl-1H,2′H-3,4′-biindazole] | 36 | 0.3 | 600 | 700 | 200 | 22 | 700 | 200 |
| Cc1cccc2c(-c3cccc4nn(C)cc34)nn(-c3ccc(N4CCC(S(N)(=O)=O)CC4)nc3)c12 [Example #22, 1-(5-{2′,7-dimethyl-1H,2′H-[3,4'′biindazol]-1-yl}pyri-din-2-yl)piperidine-4-sul-fonamide] | 10 | 1.6 | 700 | 700 | 200 | 23 | 700 | 100 |
| Cc1cccc2c(-c3cccc4nn(C)cc34)nn(-c3ccc(N4CCOCC4)nc3)c12 [compound 17, 2′,7-dimethyl-1-[6-(mor-pholin-4-yl)pyridin-3-yl]-1H,2′H-3,4′-biindazole] | 26 | 0.3 | 5700 | 6100 | 2000 | 16 | 6800 | 2100 |
| Cc1cccc2c(-c3cccc4nn(C)cc34)nn(-c3ccc(N4CCC(NS(C)(=O)=O)CC4)nc3)c12 [compound 56, N-[1-(5-{2′,7-dimethyl-1H,2′H-[3,4′-biindazol]-1-yl}pyridin-2-yl)piperidin-4-yl]methanesulfonamide] | 21 | 0.6 | 2100 | 2200 | 800 | 20 | 3000 | 400 |
| CC(=O)NC1C2CN(c3ccc(-n4nc(-c5cccc6nn(C)cc56)c5cccc(C)c54)cn3)CC21 (centres unmarked) [compound 55, N-[3-(5-{2′,7-dimethyl-1H,2′H-[3,4′-biindazol]-1-yl}pyridin-2-yl)-3-azabicyclo[3.1.0]hexan-6-yl]acetamide] | 21 | 1 | 1200 | 1700 | 700 | 20 | 2300 | 800 |
| Cc1cc2c(-c3nn(-c4ccc(N5CC6C(C5)C6C(=O)O)nc4)c4c(C)cccc34)cccn2n1 (centres unmarked) [compound 68, 3-[5-(7-methyl-3-{2-methylpyrazolo[1,5-a]pyr-idin-4-yl}-1H-indazol-1-yl)pyridin-2-yl]-3-azabicy-clo[3.1.0]hexane-6-car-boxylic acid] | 16 | 1 | 800 | 800 | 700 | 24 | 1600 | 700 |
| Cc1cccc2c(-c3cccc4nn(C)cc34)nn(-c3ccc(N4CC5(CCN(C=O)C5)C4)nc3)c12 [compound 53, 2-(5-{2′,7-dimethyl-1H,2′H-[3,4′-biinda-zol]-1-yl}pyridin-2-yl)-2,6-dia-zaspiro[3.4]octane-6-carbaldehyde] | 50 | 0.2 | 1900 | 1600 | 700 | 20 | 1700 | 700 |
| Cc1cccc2c(-c3cccc4nn(C)cc34)nn(-c3ccc(N4CCC5(CC4)CNC5=O)nc3)c12 [compound 10, 7-(5-{2′,7-dimethyl-1H,2′H-[3,4′-biindazol]-1-yl}pyri-din-2-yl)-2,7-dia-zaspiro[3.5]nonan-1-one] | 26 | – | 2200 | 2100 | 500 | 20 | 2100 | 400 |
| Cc1cccc2c(-c3cccc4nn(C)cc34)nn(-c3ccc(N4CCC5(CC4)C(=O)N(C)C(=O)N5C)nc3)c12 [compound 9, 8-(5-{2′,7-dimethyl-1H,2′H-[3,4′-biindazol]-1-yl}pyri-din-2-yl)-1,3-dimethyl-1,3,8-triazaspiro[4.5] decane-2,4-dione] | 23 | 0.3 | 700 | 600 | 200 | 23 | 1000 | 100 |
